Structures are written as SMILES.

Turning to `*C(=O)c1cc(C(=O)c2ccc3c(c2)C(=O)N(c2ccc(C(c4ccc(N5C(=O)c6ccc(*)cc6C5=O)cc4)(C(F)(F)F)C(F)(F)F)cc2)C3=O)cc(C(C)(C)C)c1` (repeat unit), the glass transition temperature worked out at 267.50 °C.

Molecule `*C(=O)c1cc2c(cc1Cl)C(=O)N(c1c(C)cc(C)c(N3C(=O)c4cc(*)c(Cl)cc4C3=O)c1C)C2=O` (repeat unit) had a glass transition temperature of 371.00 °C.

Regarding `*C(=O)c1ccc2c(c1)C(=O)N(c1cc(-c3nc4ccccc4oc3=O)cc(N3C(=O)c4ccc(*)cc4C3=O)c1)C2=O` (repeat unit), the glass transition temperature was found to be 95.00 °C.

Regarding `*C(=O)c1ccc2c(c1)C(=O)N(c1ccc(/C=C/c3ccc(N4C(=O)c5ccc(*)cc5C4=O)cc3)cc1)C2=O` (repeat unit), the glass transition temperature is 303.00 °C.

Consider `*C(=O)c1ccc2c(c1)C(=O)N(c1ccc(C(=O)c3ccccc3N3C(=O)c4ccc(*)cc4C3=O)cc1)C2=O` (repeat unit), for which the glass transition temperature is 289.00 °C.

For the molecule `*C(=O)c1ccc2c(c1)C(=O)N(c1ccc(C(c3ccc(N4C(=O)c5ccc(*)cc5C4=O)cc3)(C(F)(F)F)C(F)(F)F)cc1)C2=O` (repeat unit), the glass transition temperature came out at 308.03 °C.

Molecule `*C(=O)c1cccc(C(=O)c2ccc3c(c2)C(=O)N(c2ccc(C(c4ccc(N5C(=O)c6ccc(*)cc6C5=O)cc4)(C(F)(F)F)C(F)(F)F)cc2)C3=O)c1` (repeat unit) came in with a glass transition temperature of 262.50 °C.

`*CC/C(C)=C(/*)C` (repeat unit): the glass transition temperature came out at 4.00 °C.

Molecule `*Oc1c(Br)cc(C(C)(C)c2cc(Br)c(OC(*)=O)c(Br)c2)cc1Br` (repeat unit) registered a glass transition temperature of 228.50 °C.

For `*Oc1cc(Cl)c(C(C)(C)c2c(Cl)cc(OC(*)=O)cc2Cl)c(Cl)c1` (repeat unit), the glass transition temperature stood at 240.00 °C.

For `*Oc1ccc(S(=O)(=O)c2ccc(Oc3c(C(C)C)cc(C(C)(C)c4cc(C(C)C)c(*)c(C(C)C)c4)cc3C(C)C)cc2)cc1` (repeat unit), the glass transition temperature was found to be 175.00 °C.

Molecule `*c1c(C)cc(C)c(-n2c(=O)c3cc4c(=O)n(*)c(=O)c4cc3c2=O)c1C` (repeat unit) displayed a glass transition temperature of 399.8 °C.

Molecule `*c1c(C)cc(C)c(N2C(=O)c3ccc(-c4ccc5c(c4)C(=O)N(*)C5=O)cc3C2=O)c1C` (repeat unit) returned a glass transition temperature of 385.00 °C.

Consider `*c1c(C)cc(C)c(N2C(=O)c3ccc(Oc4ccc(Oc5ccc6c(c5)C(=O)N(*)C6=O)cc4)cc3C2=O)c1C` (repeat unit), for which the glass transition temperature amounted to 345.00 °C.

`*c1c(C)cc(C)c(N2C(=O)c3ccc(Sc4ccc5c(c4)C(=O)N(*)C5=O)cc3C2=O)c1C` (repeat unit) had a glass transition temperature of 378.00 °C.

`*c1cc(-c2ccc(C(=C3C=C(C(C)(C)C)C(=O)C(C(C)(C)C)=C3)c3cc(C(C)(C)C)c(O)c(C(C)(C)C)c3)cc2)c(*)s1` (repeat unit) registered a glass transition temperature of -12.60 °C.

On to `*c1cc(-c2ccc(C(=C3C=C(C(C)(C)C)C(=O)C(C(C)(C)C)=C3)c3cc(C(C)(C)C)c(OC(C)=O)c(C(C)(C)C)c3)cc2)c(*)s1` (repeat unit), for which the glass transition temperature is -4.30 °C.

`*c1cc(-c2nc3ccccc3oc2=O)cc(-n2c(=O)c3cc4c(=O)n(*)c(=O)c4cc3c2=O)c1` (repeat unit) returned a glass transition temperature of 130.00 °C.

In the case of `*c1cc(-c2sc(-c3cc(CCCCCCC)c(*)s3)cc2CCCCCCC)c2cccccc1-2` (repeat unit), the glass transition temperature was determined as 56.00 °C.

In turn, `*c1cc(-c2sc(-c3cc(CCCCCCCCCC)c(*)s3)cc2CCCCCCCCCC)c2cccccc1-2` (repeat unit) showed a glass transition temperature of 22.50 °C.

For `*c1cc(-c2sc(-c3cc(CCCCCCCCCCCCCC)c(*)s3)cc2CCCCCCCCCCCCCC)c2cccccc1-2` (repeat unit), the glass transition temperature was -10.00 °C.

`*c1cc(/N=N/c2ccc(OC)cc2)cc(*)c1O` (repeat unit) had a glass transition temperature of 134.00 °C.

As for `*c1cc(Br)c(-c2c(Br)cc(N3C(=O)c4ccc(-c5ccc6c(c5)C(=O)N(*)C6=O)cc4C3=O)cc2C(=O)OCCCC)c(C(=O)OCCCC)c1` (repeat unit), the glass transition temperature was 196.00 °C.

The molecule `*c1cc(Br)c(-c2c(Br)cc(N3C(=O)c4ccc(-c5ccc6c(c5)C(=O)N(*)C6=O)cc4C3=O)cc2C(=O)OCCCCCCCC)c(C(=O)OCCCCCCCC)c1` (repeat unit) yielded a glass transition temperature of 135.50 °C.

In turn, `*c1cc(Br)c(-c2c(Br)cc(N3C(=O)c4ccc(-c5ccc6c(c5)C(=O)N(*)C6=O)cc4C3=O)cc2C(=O)OCCCCCCCCCC)c(C(=O)OCCCCCCCCCC)c1` (repeat unit) yielded a glass transition temperature of 116.00 °C.

`*c1cc(C(=O)NCCCCCCCCCCCC)cc(N2C(=O)c3ccc(-c4ccc5c(c4)C(=O)N(*)C5=O)cc3C2=O)c1` (repeat unit): the glass transition temperature amounted to 243.10 °C.

For `*c1cc(C(=O)OC)cc(N2C(=O)CC(C3Cc4ccccc4C4C(=O)N(*)C(=O)C43)C2=O)c1` (repeat unit), the glass transition temperature worked out at 258.00 °C.

Take `*c1cc(C(=O)OCCCC)cc(N2C(=O)CC(C3Cc4ccccc4C4C(=O)N(*)C(=O)C43)C2=O)c1` (repeat unit): the glass transition temperature worked out at 219.00 °C.

In turn, `*c1ccc(N2C(=O)c3ccc(C(=O)c4ccc5c(c4)C(=O)N(c4ccc(-c6nc7cc(S(=O)(=O)c8ccc9nc(-c%10ccccc%10)c(*)nc9c8)ccc7nc6-c6ccccc6)cc4)C5=O)cc3C2=O)cc1` (repeat unit) returned a glass transition temperature of 240.00 °C.

In turn, `*c1ccc2c(c1)C(=O)N(c1c(C(C)C)cc(C(c3ccccc3)(c3cc(C(C)C)c(N4C(=O)c5ccc(C(*)(C(F)(F)F)C(F)(F)F)cc5C4=O)c(C(C)C)c3)C(F)(F)F)cc1C(C)C)C2=O` (repeat unit) gave a glass transition temperature of 274.00 °C.

In turn, `*c1ccc2c(c1)C(=O)N(c1c(C)cc(C(c3ccccc3)(c3cc(C)c(N4C(=O)c5ccc(C(*)(C(F)(F)F)C(F)(F)F)cc5C4=O)c(C(C)C)c3)C(F)(F)F)cc1C(C)C)C2=O` (repeat unit) displayed a glass transition temperature of 289.00 °C.

Take `*c1ccc2c(c1)C(=O)N(c1c(C)cc(C)c(C(=O)c3cccc(N4C(=O)c5ccc(C(*)(C(F)(F)F)C(F)(F)F)cc5C4=O)c3)c1C)C2=O` (repeat unit): the glass transition temperature stood at 280.00 °C.

Molecule `*c1ccc2c(c1)C(=O)N(c1c(C)cc(Cc3cc(C)c(N4C(=O)c5ccc(C(*)(C(F)(F)F)C(F)(F)F)cc5C4=O)c(C(C)C)c3)cc1C(C)C)C2=O` (repeat unit) came in with a glass transition temperature of 276.00 °C.

In turn, `*c1cccc(-c2cc(C(=O)Nc3ccc(OC(=O)c4cc(OCCCCCCCCCCCC)c(OCCCCCCCCCCCC)c(OCCCCCCCCCCCC)c4)cc3)cc(-c3cccc(N4C(=O)CC(C5C=C(C)C6C(=O)N(*)C(=O)C6C5)C4=O)c3)c2)c1` (repeat unit) showed a glass transition temperature of 270.00 °C.

`*c1cccc(-c2cc(C(=O)Nc3ccc(OC(=O)c4cc(OCCCCCCCCCCCC)c(OCCCCCCCCCCCC)c(OCCCCCCCCCCCC)c4)cc3)cc(-c3cccc(N4C(=O)c5ccc(S(=O)(=O)c6ccc7c(c6)C(=O)N(*)C7=O)cc5C4=O)c3)c2)c1` (repeat unit): the glass transition temperature amounted to 268.00 °C.

Molecule `*c1cccc(C(=O)c2c(C)cc(C)c(N3C(=O)c4ccc(-c5ccc6c(c5)C(=O)N(*)C6=O)cc4C3=O)c2C)c1` (repeat unit) came in with a glass transition temperature of 320.00 °C.

The values are drawn from the PolyMetriX glass transition set.
